For test [1], the system named is isogenic phoP mutant of S. typhimurium (strain CS015 phoP102::Tn10d-Cam). The experiment in a line: agar (plate) diffusion antibacterial assay, clear zones. It counts as cell-based. As to conditions: phoP mutant (attenuated, avirulent) S. typhimurium; modified plate diffusion assay; result in words, compared with wild-type. From the text:
(§1) • Figure 1 provides the consensus structures of mouse cryptdins 1-5 and rat cryptdin-1. Amino acid residues are indicated by single-letter code. Dashed lines are included in mouse cryptdin-4 and rat cryptdin-1 in order to preserve the consensus sequence where these peptides are shorter than other cryptdins. Invariant residues in the enteric cryptdin peptides are boxed. […] Acid extract of jejunum and ileum was chromatographed in 30% acetic acid on a P-60 column. Fractions indicated by the bracket (panel A) were pooled and rechromatographed on the P-60 column (panel B). Cryptdin containing fractions (bracket, panel B) were pooled and further purified by RP-HPLC on 0.46 x 25 cm Vydac C-18 column. Water-acetonitrile gradient elution (--) using 0.13% (vol/vol) HFBA as modifier was used to purify cryptdins 1-5. […] Samples of low molecular weight enteric peptides obtained by P-60 gel filtration (Figure 2, [panel B]) and purified cryptdins were electrophoresed on a 12.5% acid-urea gel and stained with formalin-containing Coomassie Blue. […] After incubation at 37°C for 18 hours, antimicrobial activity was evaluated by measurement of the diameters of the clear zones. […]
(§2) The antimicrobial, or antibacterial, activity of cryptdins can be measured against various pathogens. […]

The test system of test [2] is wild-type Salmonella typhimurium (ATCC 10428). The test is described as above. It counts as cell-based. The conditions noted are these: wild-type S. typhimurium; modified plate diffusion assay; result in words, compared with the phoP mutant.
Excerpt: as §1, §2

Test [3] has as its system phoP mutant S. typhimurium. As to conditions: compared to wild-type parent strains; Fields et al., Miller et al. 1990; cited from earlier work.

No end group written: not given here.

“NP-1: rabbit defensin (VVCACRRALCLPRERRAGFCRIRGRIHPLCCRR; ends and bridges not checked; cysteine pairing not given here; UniProt P01376 63-95, looked up)”: the antimicrobial activity result in test [1] and in test [2] was “quite similar” in each case. For the same substance, the “sensitivity of mutants in the phoP locus” value in test [3] is recorded as “particularly sensitive”.

With “NP-2: rabbit defensin (VVCACRRALCLPLERRAGFCRIRGRIHPLCCRR; ends and bridges not checked; cysteine pairing not given here; UniProt P01377 63-95, looked up)”, the “sensitivity of mutants in the phoP locus” value in test [3] was “particularly sensitive”.

Values taken from EP0642348B1, “[…] PEPTIDES AND METHODS OF THEIR USE” (THE REGENTS OF THE UNIVERSITY OF CALIFORNIA, priority 1992, dated 2000).
